Measured values as given in PMC3646541 (Nature protocols, 2011).

System: four of the six Bcl-2 family proteins
Test: Multiplex flow cytometry competition dose-response against F-Bim
Type: binding
Conditions: constant 50 nM F-Bim, dose-response series (Fig. 2b)

## CN(C)CC[C@H](CSc1ccccc1)Nc1ccc(S(=O)(=O)NC(=O)c2ccc(N3CCN(Cc4ccccc4-c4ccc(Cl)cc4)CC3)cc2)cc1[N+](=O)[O-] [ABT-737]
  ability to block F-Bim binding: block F-Bim binding to four of them at relatively low concentrations
